Where “and” joins values, the source holds several entries; their conditions need not be identical. Identical values can stand only once. Toxic doses and inconclusive results are not listed. Cut-off read from the data, not from the text of the source: active = T/C of 150% or more; inactive = T/C below 125%.
Tested on: L1210 leukemia ip in BDF1 mice, survival T/C
Assay: NCI In Vivo Anticancer Drug Screen. Data for tumor model L1210 Leukemia (intraperitoneal) in B6D2F1 (BDF1) mice
Details: higher = longer survival
How it was run: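 Survival endpoint. Drug-treated group vs vehicle group, expressed as T divided by C. Tumor passaged by transplantation.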

[1] = endpoint: mean survival time, dose: 25.0 mg/kg/injection, schedule: Q01DX009 (ip), vehicle: Klucel (hydroxypropylcellulose) (HPC)
[2] = endpoint: mean survival time, dose: 50.0 mg/kg/injection, schedule: Q01DX009 (ip), vehicle: Klucel (hydroxypropylcellulose) (HPC)
[3] = endpoint: mean survival time, dose: 100.0 mg/kg/injection, schedule: Q01DX009 (ip), vehicle: Klucel (hydroxypropylcellulose) (HPC)
[4] = endpoint: mean survival time, dose: 100.0 mg/kg/injection, schedule: Q04DX003 (ip), vehicle: saline
[5] = endpoint: mean survival time, dose: 200.0 mg/kg/injection, schedule: Q04DX003 (ip), vehicle: saline
[6] = endpoint: mean survival time, dose: 400.0 mg/kg/injection, schedule: Q04DX003 (ip), vehicle: saline
[7] = endpoint: mean survival time, dose: 200.0 mg/kg/injection, schedule: Q01DX001 (ip), vehicle: saline
[8] = endpoint: mean survival time, dose: 400.0 mg/kg/injection, schedule: Q01DX001 (ip), vehicle: saline
[9] = endpoint: mean survival time, dose: 100.0 mg/kg/injection, schedule: Q01DX009 (ip), vehicle: saline
[10] = endpoint: mean survival time, dose: 100.0 mg/kg/injection, schedule: Q01DX001 (ip), vehicle: saline

Measured: T/C

COc1ccc(C2c3cc4c(c(OC)c3CC3OCC(=O)C32)OCO4)cc1OC (stereo not given)
inactive: endpoint: mean survival time, dose: 12.5 mg/kg/injection, schedule: Q01DX009 (ip), vehicle: Klucel (hydroxypropylcellulose) (HPC) 110 % of control | [1] 110 % of control | [2] 123 % of control | endpoint: mean survival time, dose: 50.0 mg/kg/injection, schedule: Q04DX003 (ip), vehicle: saline 110 % of control | endpoint: mean survival time, dose: 75.0 mg/kg/injection, schedule: Q01DX001 (ip), vehicle: Klucel (hydroxypropylcellulose) (HPC) 106 % of control | [3] 121 % of control | [4] 116 % of control | endpoint: mean survival time, dose: 150.0 mg/kg/injection, schedule: Q01DX001 (ip), vehicle: Klucel (hydroxypropylcellulose) (HPC) 112 % of control | endpoint: mean survival time, dose: 200.0 mg/kg/injection, schedule: Q01DX009 (ip), vehicle: Klucel (hydroxypropylcellulose) (HPC) 101 % of control | [5] 116 % of control | endpoint: mean survival time, dose: 300.0 mg/kg/injection, schedule: Q01DX001 (ip), vehicle: Klucel (hydroxypropylcellulose) (HPC) 104 % of control | [6] 110 % of control | endpoint: mean survival time, dose: 600.0 mg/kg/injection, schedule: Q01DX001 (ip), vehicle: Klucel (hydroxypropylcellulose) (HPC) 115 % of control | endpoint: mean survival time, dose: 800.0 mg/kg/injection, schedule: Q04DX003 (ip), vehicle: saline 118 % of control | endpoint: mean survival time, dose: 1200.0 mg/kg/injection, schedule: Q01DX001 (ip), vehicle: Klucel (hydroxypropylcellulose) (HPC) 118 % of control | endpoint: median survival time, dose: 12.5 mg/kg/injection, schedule: Q01DX009 (ip), vehicle: Klucel (hydroxypropylcellulose) (HPC) 105 % of control | endpoint: median survival time, dose: 25.0 mg/kg/injection, schedule: Q01DX009 (ip), vehicle: Klucel (hydroxypropylcellulose) (HPC) 100 % of control | endpoint: median survival time, dose: 50.0 mg/kg/injection, schedule: Q01DX009 (ip), vehicle: Klucel (hydroxypropylcellulose) (HPC) 111 % of control | endpoint: median survival time, dose: 100.0 mg/kg/injection, schedule: Q01DX009 (ip), vehicle: Klucel (hydroxypropylcellulose) (HPC) 116 % of control

CCCCCCCCCCCCCCCC(O)S(=O)(=O)O (stereo not given)
inactive: endpoint: mean survival time, dose: 100.0 mg/kg/injection, schedule: Q04DX003 (ip), vehicle: saline with Tween-80 92 % of control | endpoint: mean survival time, dose: 200.0 mg/kg/injection, schedule: Q04DX003 (ip), vehicle: saline with Tween-80 97 % of control

O=C(Nc1ccc(Cl)c(C(F)(F)F)c1)OCc1ccco1
inactive: endpoint: mean survival time, dose: 100.0 mg/kg/injection, schedule: Q01DX009 (ip), vehicle: gum acacia 93 % of control | endpoint: mean survival time, dose: 200.0 mg/kg/injection, schedule: Q01DX009 (ip), vehicle: gum acacia 100 % of control | endpoint: mean survival time, dose: 400.0 mg/kg/injection, schedule: Q01DX009 (ip), vehicle: gum acacia 92 % of control

CCN(CC)C(C)=O
inactive: endpoint: mean survival time, dose: 50.0 mg/kg/injection, schedule: Q01DX001 (ip), vehicle: saline 87 % of control | [7] 86 % of control | [8] 86 % of control

N#CC(=N)C(C#N)=Nc1c(O)[nH]c2ccccc12
inactive: endpoint: mean survival time, dose: 25.0 mg/kg/injection, schedule: Q01DX001 (ip), vehicle: DMSO 93 % of control | endpoint: mean survival time, dose: 25.0 mg/kg/injection, schedule: Q01DX009 (ip), vehicle: DMSO 92 % of control | endpoint: mean survival time, dose: 50.0 mg/kg/injection, schedule: Q01DX001 (ip), vehicle: DMSO 97 % of control | endpoint: mean survival time, dose: 50.0 mg/kg/injection, schedule: Q01DX009 (ip), vehicle: DMSO 91 % of control | endpoint: mean survival time, dose: 100.0 mg/kg/injection, schedule: Q01DX001 (ip), vehicle: DMSO 97 % of control and 102 % of control

CCOC(=O)C1CCC(C(=O)OCC)N1c1ccc(C=O)cc1 (stereo not given)
inactive: endpoint: mean survival time, dose: 100.0 mg/kg/injection, schedule: Q01DX009 (sc), vehicle: olive oil, sesame oil, peanut oil 104 % of control | endpoint: mean survival time, dose: 100.0 mg/kg/injection, schedule: Q04DX003 (sc), vehicle: olive oil, sesame oil, peanut oil 112 % of control | endpoint: mean survival time, dose: 200.0 mg/kg/injection, schedule: Q01DX009 (sc), vehicle: olive oil, sesame oil, peanut oil 96 % of control | endpoint: mean survival time, dose: 200.0 mg/kg/injection, schedule: Q04DX003 (sc), vehicle: olive oil, sesame oil, peanut oil 112 % of control | endpoint: mean survival time, dose: 400.0 mg/kg/injection, schedule: Q01DX009 (sc), vehicle: olive oil, sesame oil, peanut oil 110 % of control | endpoint: mean survival time, dose: 400.0 mg/kg/injection, schedule: Q04DX003 (sc), vehicle: olive oil, sesame oil, peanut oil 102 % of control

CCOC(=O)CCc1ccc(O)c(O)c1
inactive: [9] 100 % of control | [4] 92 % of control | endpoint: mean survival time, dose: 200.0 mg/kg/injection, schedule: Q01DX009 (ip), vehicle: saline 102 % of control | [5] 111 % of control | [6] 101 % of control

O=C(O)c1ccc([N+](=O)[O-])cc1O
inactive: endpoint: mean survival time, dose: 100.0 mg/kg/injection, schedule: Q01DX001 (ip), vehicle: carboxymethylcellulose (CMC) 101 % of control | endpoint: mean survival time, dose: 100.0 mg/kg/injection, schedule: Q04DX002 (ip), vehicle: saline with Tween-80 95 % of control | endpoint: mean survival time, dose: 200.0 mg/kg/injection, schedule: Q01DX001 (ip), vehicle: carboxymethylcellulose (CMC) 97 % of control | endpoint: mean survival time, dose: 200.0 mg/kg/injection, schedule: Q04DX002 (ip), vehicle: saline with Tween-80 98 % of control | endpoint: mean survival time, dose: 400.0 mg/kg/injection, schedule: Q04DX002 (ip), vehicle: saline with Tween-80 102 % of control

CCCC(=O)CC(=O)C(F)(F)F.CCCC(=O)CC(=O)C(F)(F)F.CCCC(=O)CC(=O)C(F)(F)F.[Er]
inactive: endpoint: mean survival time, dose: 100.0 mg/kg/injection, schedule: Q01DX009 (ip), vehicle: other 104 % of control | endpoint: mean survival time, dose: 100.0 mg/kg/injection, schedule: Q04DX003 (ip), vehicle: other 110 % of control | endpoint: mean survival time, dose: 200.0 mg/kg/injection, schedule: Q01DX009 (ip), vehicle: other 106 % of control | endpoint: mean survival time, dose: 200.0 mg/kg/injection, schedule: Q04DX003 (ip), vehicle: other 107 % of control | endpoint: mean survival time, dose: 400.0 mg/kg/injection, schedule: Q04DX003 (ip), vehicle: other 108 % of control

CC1CCC(NCCOC(=O)c2ccc(N)cc2)CC1 (stereo not given)
inactive: endpoint: mean survival time, dose: 75.0 mg/kg/injection, schedule: Q01DX001 (ip), vehicle: other 94 % of control | endpoint: mean survival time, dose: 150.0 mg/kg/injection, schedule: Q01DX001 (ip), vehicle: other 108 % of control

O=C(O)/C=C/SCc1ccccc1
inactive: endpoint: mean survival time, dose: 100.0 mg/kg/injection, schedule: Q04DX002 (ip), vehicle: Klucel (hydroxypropylcellulose) (HPC) 97 % of control | endpoint: mean survival time, dose: 200.0 mg/kg/injection, schedule: Q04DX002 (ip), vehicle: Klucel (hydroxypropylcellulose) (HPC) 90 % of control | endpoint: mean survival time, dose: 400.0 mg/kg/injection, schedule: Q04DX002 (ip), vehicle: Klucel (hydroxypropylcellulose) (HPC) 97 % of control

COc1ccccc1-c1c(C(=O)O)cccc1[N+](=O)[O-]
inactive: endpoint: mean survival time, dose: 100.0 mg/kg/injection, schedule: Q01DX009 (ip), vehicle: saline with Tween-80 98 % of control | endpoint: mean survival time, dose: 200.0 mg/kg/injection, schedule: Q01DX009 (ip), vehicle: saline with Tween-80 106 % of control | endpoint: mean survival time, dose: 400.0 mg/kg/injection, schedule: Q01DX009 (ip), vehicle: saline with Tween-80 101 % of control

CCOC(=O)C(C#N)C1CCCCC1 (stereo not given)
inactive: [1] 109 % of control | [2] 102 % of control | endpoint: mean survival time, dose: 100.0 mg/kg/injection, schedule: Q01DX001 (ip), vehicle: saline with Tween-80 98 % of control | [3] 102 % of control | endpoint: mean survival time, dose: 100.0 mg/kg/injection, schedule: Q04DX003 (ip), vehicle: Klucel (hydroxypropylcellulose) (HPC) 102 % of control | endpoint: mean survival time, dose: 200.0 mg/kg/injection, schedule: Q01DX001 (ip), vehicle: saline with Tween-80 95 % of control | endpoint: mean survival time, dose: 200.0 mg/kg/injection, schedule: Q04DX003 (ip), vehicle: Klucel (hydroxypropylcellulose) (HPC) 107 % of control | endpoint: mean survival time, dose: 400.0 mg/kg/injection, schedule: Q04DX003 (ip), vehicle: Klucel (hydroxypropylcellulose) (HPC) 100 % of control

CC(=Nc1ccc(Cl)cc1)Nc1ccc(Cl)cc1
inactive: endpoint: mean survival time, dose: 62.5 mg/kg/injection, schedule: Q01DX009 (ip), vehicle: Klucel (hydroxypropylcellulose) (HPC) 92 % of control | endpoint: mean survival time, dose: 125.0 mg/kg/injection, schedule: Q01DX009 (ip), vehicle: Klucel (hydroxypropylcellulose) (HPC) 96 % of control | endpoint: mean survival time, dose: 250.0 mg/kg/injection, schedule: Q01DX009 (ip), vehicle: Klucel (hydroxypropylcellulose) (HPC) 100 % of control

CC1(/C=N\NC(=O)CCCC(=O)N/N=C/C2(C)CCC=CO2)CCC=CO1 (stereo not given)
inactive: [10] 92 % of control | [8] 97 % of control

CCOC(=O)c1cnc(C)[nH]c1=O
inactive: endpoint: mean survival time, dose: 12.5 mg/kg/injection, schedule: Q01DX009 (ip), vehicle: saline 100 % of control | endpoint: mean survival time, dose: 25.0 mg/kg/injection, schedule: Q01DX009 (ip), vehicle: saline 99 % of control | endpoint: mean survival time, dose: 50.0 mg/kg/injection, schedule: Q01DX009 (ip), vehicle: saline 94 % of control | [10] 108 % of control | [9] 101 % of control | [7] 101 % of control
